Data on two molecules can be found in patent US5607836A, “Methods of detecting compounds which bind to the P2U receptor” (The Curators of the University of Missouri, priority 1995, dated 1997).

What all share (assay type): cell-based
The target in assay [1] is T1, P2U receptor of CF/T43 cells (Homo sapiens, UniProt P41231).
T1 construct: fura-2 calcium
The assay is described as follows: intracellular calcium by fura-2 fluorescence in CF/T43 cells (endogenous receptor). To be noted: for [Ca^2+ ]i response to extracellular nucleotide: 10^-4 M (printed for UTP). The method, then:
(§1) Heteroloqous Expression. A retroviral vector-containing plasmid, pLHP2USN, was constructed by insertion of the cloned CF/T43 cDNA into the EcoRI and XhoI sites of pLXSN (A. Miller and G. Rosman, Biotechniques 7, 980 (1989)). An amphotrophic packaging cell line, PA317, was used to produce the LHP2USN retroviral vector and a control vector containing Neor only (LSN). Clonal human astrocytoma cells 1321N1, UNC strain, generously provided by T. K. Harden (UNC, Chapel Hill, N.C.), were plated at 150,000 cells per 60-mm dish and infected with LHP2USN or LSN (2 hr, 4 ug/ml Polybrene) and after 48 hr selected with 600 ug/ml G418 (Life Technologies, Inc., Gaithersburg, Md., U.S.A.). To assay for receptor activity, intracellular calcium concentration was measured in confluent cells on coverslips by fura-2 fluorescence using microspectrofluorimetry as previously described (S. Mason et al., Br. J. Pharmacol. 103, 1649 (1991)). Measurement of cell inositol phosphate formation was as described by H. Brown et al., Mol. Pharmacol. 40, 648 (1991), in accordance with known techniques.
(§2) A retrovirus expression system was employed to study the cloned CF/T43 HP2U cDNA in 1321N1 human astrocytoma cells. The effect of extracellular nuceotides on intracellular calcium, as measured by fura-2 fluorescence, was assessed in CF/T43 cells, uninfected 1321N1 cells, and 1321N1 cells infected with retroviral vector containing either the cloned HP2U or no insert (LSN).

Assay [2] deals with T2, human P2U receptor (Homo sapiens, UniProt P41231). The assay is described as follows: intracellular calcium by fura-2 fluorescence in 1321N1 human astrocytoma cells expressing the cloned HP2U (LHP2USN). The following applies: for [Ca^2+ ]i in absence of extracellular Ca^2+: HP2U-1321N1 cells. How it is done:
as §1, §2
To examine the pharmacological specifity of the HP2U clone expressed in 1321N1 cells, concentration-effect curves were generated for nucleotides and structural analogues active at P2X, P2Y and P2U receptors (data not shown). […] These concentration-effect relations are very similar to those reported for heterologously expressed murine P2U (Lustig, et al., supra) and virtually indistinguishable from data (not shown) generated for the endogenous CF/T43 and HT-29 receptors. Clearly, the agonist specifities fit the definition of the P2U receptor.
Background: A change in cytosolic calcium serves as a functional read-out for many receptors and channels.

The target of assay [3] is T2, human P2U receptor. Put plainly: inositol phosphate formation in 1321N1 cells expressing LHP2USN. To be noted: 1321N1 cells expressing LHP2USN pretreated with apyrase. How it is done: as §1
To test this possibility more directly, we measured inositol phosphate formation. […] We hypothesized that during the lengthy labeling period 1321N1 cells released 5'-nucleotides into the medium in quantities sufficient to "self-activate" the receptor. […] Thus, it appears the cells are persistently stimulated by nucleotides in an autocrine fashion. The mode of release of nucleotides from the astrocytoma cells and the biological consequences of the persistent autocrine activation are unknown. To facilitate comparison with controls, the inositol phosphate studies were performed on cells pretreated with apyrase.

T1 sequence (P41231 whole entry): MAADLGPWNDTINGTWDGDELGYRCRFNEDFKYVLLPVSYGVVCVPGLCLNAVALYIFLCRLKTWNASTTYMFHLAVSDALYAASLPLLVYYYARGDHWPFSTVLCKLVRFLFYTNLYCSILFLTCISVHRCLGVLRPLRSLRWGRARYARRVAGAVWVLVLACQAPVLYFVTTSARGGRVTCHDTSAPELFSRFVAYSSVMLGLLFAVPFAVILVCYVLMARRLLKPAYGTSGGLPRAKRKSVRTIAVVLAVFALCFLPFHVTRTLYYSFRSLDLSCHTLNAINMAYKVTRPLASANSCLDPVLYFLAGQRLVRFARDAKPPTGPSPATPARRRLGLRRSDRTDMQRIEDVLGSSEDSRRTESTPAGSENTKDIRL
T2 sequence (P41231 whole entry): as above

For orientation: EC50 means the concentration at which the effect is half-maximal. `Nc1ncnc2c1ncn2[C@@H]1O[C@H](COP(=O)(O)OP(=O)(O)OP(=O)(O)O)[C@@H](O)[C@H]1O` [ATP]: in assay [1], the “[Ca^2+ ]i response to extracellular nucleotide” value is “the same result observed with UTP” and the “[Ca^2+ ]i response to extracellular nucleotide in Ca2+-free medium” value is “the same result observed with UTP”. For the same molecule, on human P2U receptor [2], the EC50 was 1000 nM and the “[Ca^2+ ]i in absence of extracellular Ca^2+” value is “raised [Ca^2+ ]i”. Besides, the “[Ca^2+ ]i response of 1321N1 cells expressing the LHP2USN vector” value on human P2U receptor [2] (Ca2+-free and Ca2+-containing media) is listed as “the same result observed with UTP”. Also, the inositol phosphate accumulation result at human P2U receptor [3] is reported as “increased inositol phosphate accumulation”.

Take `O=c1ccn([C@@H]2O[C@H](COP(=O)(O)OP(=O)(O)OP(=O)(O)O)[C@@H](O)[C@H]2O)c(=O)[nH]1` [UTP]: in assay [1], the “[Ca^2+ ]i response to extracellular nucleotide” value is “initial sharp increase in [Ca^2+ ]i which relaxed over 1-2 min to a prolonged plateau” and the “[Ca^2+ ]i response to extracellular nucleotide in Ca2+-free medium” value is “sharp increase in [Ca^2+ ]i which returned to baseline without an intervening plateau phase”. Moreover, on human P2U receptor [2], the EC50 worked out at 1400 nM and the “[Ca^2+ ]i in absence of extracellular Ca^2+” value is “raised [Ca^2+ ]i”. On human P2U receptor [2] (HP2U clone expressed in 1321N1 cells), the “efficacy / effect in concentration-effect curves” value is on record as “slightly more efficacious”. The inositol phosphate accumulation entry on human P2U receptor [3] is “increased inositol phosphate accumulation”.
